# Reference: patent US4737517A, “Coumarin derivatives, pharmaceutical compositions containing the same, and the use thereof in the treatment of cancer” (FIDIA, S.p.A., priority 1983, dated 1988)
# Where a name gives a salt, the structure may show the parent alone.
# How the values were obtained:
# [1] = system: platelet hyper-aggregation induced by ADP; test: Inhibition of ADP-induced platelet hyperaggregation in vitro (Born's method, aggregometer ELVI 840); assay type: cell-based, New Zealand rabbits; conditions: Oryctolagus cuniculus, 0.5 h, ADP 20 μg/ml, 100 γ/ml of active compound, rabbit PRP, incubated 30 minutes at 37° C, read-out: Inhibition of platelet hyper-aggregation induced by ADP
# Description: Two separate centrifugations are effected (at 1000 rpm and at 6000 rpm), thus obtaining PRP ([…]) and PPP ([…]); the first is diluted with the second in order to obtain a platelet concentration of 300,000 per mm^3 (the count is effected in a Buerker apparatus). The compounds with a platelet antiaggregating activity of the present invention are added at the desired concentrations and incubated for 30 minutes at 37° C. with the aggregating agents. […] The various compounds represented by the numbers in the first column are identifiable by the numbers in the second column which refer to the examples described below in this specification.
# coagulation = test: Thrombotest on capillary blood (anticoagulating effect); assay type: in vivo, mice (C57B1/6J); conditions: oral; 1st adminis. 1.5 mg/kg, 2nd adminis. 0.3 mg/kg; controls 31.4 ± 1.7
# Description: In a separate experiment, the anticoagulating activity of the compounds is verified on the same strain of mice at the same doses used for antimetastatic activity evaluation.
# The effect on coagulation is measured by a thrombotest on capillary blood taken from the retroorbital cavity (Owren, P. A. et al. Lancet ii, 754-758, 1959).
# (§1) The anticoagulating effect measured by the "thrombotest", the antitumor effect measured by the decrease in weight of the primary tumor and the antimetastatic effect shown as the number of metasteses present in the lungs, are reported in Table 2. While the antitumor and antimetastatic effects of Warfarin and the two new products according to the present invention are roughly equal, the strong anticoagulating effect is absent in the two new products of the invention. This is a completely unexpected result.
# [2] = system: 3 LL carcinoma cells (Lewis lung carcinoma); test: Antitumor and antimetastatic activity in mice implanted with 3 LL Lewis lung carcinoma; assay type: in vivo, male mice of the C57B1/6J strain; conditions: oral
# Description: This activity is to be seen for instance after administration of doses of between 0.2 mg/kg and 10 mg/kg by the oral route, as illustrated by the following experiments.
# 1×10^5 3 LL carcinoma cells (Lewis lung carcinoma) are implanted by intramuscular injection in the paws of male mice of the C57B1/6J strain, weighing about 20-22 g. This operation is effected as described in the literature (Poggi A. et al. Cancer Res. 37, 272-277, 1977). The growth of the tumor is observed until the 25th day after transplant. On this day the animals are sacrificed and the primary tumor and lungs are removed in order to evaluate the growth of the primary tumor and the number of metastases. Pharmacological treatment by the oral route begins 2 days before transplant of the tumor and continues until sacrifice. The substances are dissolved in tap water and are changed every 24 hours.
# Table 2 reports the results obtained with the two coumarin derivatives 19 and 26, previously mentioned in comparison to Warfarin, the well-known […] and antimetastatic compound, which is also a coumarin derivative. Warfarin's antimetastatic activity is widely documented both experimentally (Zacharski, L. R. et al. Cancer 44, 732-741, 1979 and Poggi, A. et al. Lancet i 163-164, 1978) and clinically (Zacharski, L. R. et al. J. Am. Med. Assoc. 245, 831-835, 1981). […] This effect is measured by the number of metastases (Zacharski, L. R. et al. Cancer 44, 732-741, 1979 and Poggi, A. et al. Lancet i 163-164, 1978).
# as §1
# [3] = Acute toxicity in the rat, oral; set-up: species or system rat (Sprague Dawley); conditions: in vivo, aqueous solution, up to 14 days, Litchfield and Wilcoxon
# Description: Acute toxicity in the rat: groups of Sprague Dawley rats (male+female) are treated with graduated doses ranging from 0.125 g/kg of body weight to 10 g/kg of body weight of the above mentioned compounds in aqueous solution. The compounds are administered orally by intubation. Subsequent death may be immediate or may occur at any time up to 14 days after treatment.
# The lethal dose 50 (LD50), that is, the dose which causes the death of 50% of the animals, is evaluated by the method of Litchfield and Wilcoxon (J. Pharmacol. Ex. Ther. 96, 99-113, 1949).
# [4] = Acute toxicity in the mouse, oral; set-up: species or system mouse (Swiss); conditions: in vivo, aqueous solution, up to 14 days, Litchfield and Wilcoxon
# Description: Acute toxicity in the mouse: groups of Swiss mice (male+female) are treated with graduated doses ranging from 0.125 g/kg to 5 g/kg of body weight with compounds 19 to 26. The compounds are administered orally by intubation and dissolved in water.
# Subsequent death may be immediate or may occur at any time up to 14 days after treatment. The lethal dose 50 (LD50), that is, the dose which causes the death of 50% of the animals, is evaluated by the method of Litchfield and Wilcoxon (J. Pharmacol. Exp. Ther. 96, 99-113, 1949).
structure (smiles),measurement,setting,value
"CCOC(=O)C(C)(C)Oc1c(CN2CCOCC2)cc2c(C)c(CCN(CC)CC)c(=O)oc2c1Cl [Compound 68, Ethyl ester of 2-[3-(2-diethylaminoethyl)-4-methyl-6-(4-morpholinylmethyl)-8-chlorocumarin-7-yl]oxy-2-methylpropionic acid dihydrochloride]",inhibition at 100 µg/mL,[1],41%
"C=CCc1c(O)c(CN2CCN(CCO)CC2)cc2c(-c3ccccc3)cc(=O)oc12 [Compound 49, 4-phenyl-6-[[4-(2-hydroxyethyl)-1-piperazinyl]methyl]-7-hydroxy-8-allylcumarin dihydrochloride]",inhibition at 100 µg/mL,[1],25%
"C=CCc1c(O)c(CN2CCC(O)CC2)cc2c(C)cc(=O)oc12 [Compound 200, 4-methyl-6-[(4-hydroxy-1-piperidinyl)methyl]-7-hydroxy-8-allylcumarin hydrochloride]",inhibition at 100 µg/mL,[1],21%
"CCOC(=O)COc1c(CN2CCOCC2)cc2c(C)c(CCN(CC)CC)c(=O)oc2c1Cl [Compound 62, Ethyl ester of [3-(2-diethylaminoethyl)-4-methyl-6-(4-morpholinylmethyl)-8-chlorocumarin-7-yl]oxyacetic acid dihydrochloride]",inhibition at 100 µg/mL,[1],23%
"C=CCc1c(O)c(CN(C)C)cc2c(C)cc(=O)oc12.Cl [Compound 19, 4-methyl-6-dimethylaminomethyl-7-hydroxy-8-allylcumarin hydrochloride]",inhibition at 100 µg/mL,[1],40%
same,Thrombotest,coagulation,29.3 ± 1.7
same,antitumoral and antimetastatic activity (in words),[2]; in vivo on mice,antitumoral and antimetastatic activity
same,No. of metastases,"[2]; lungs, 1st adminis. 1.5 mg/kg, 2nd adminis. 0.3 mg/kg, 25th day after transplant, controls 21.8 ± 4.9",11.4 ± 3.3
same,Primary Tumor Weight,"[2]; 1st adminis. 1.5 mg/kg, 2nd adminis. 0.3 mg/kg, 25th day after transplant, controls 9087 ± 386",6731 ± 533 mg
same,LD50 at 336 h,[3],2000 mg/kg
same,LD50 at 336 h,[4],1210 mg/kg
"Cc1cc(=O)oc2c(Cl)c(O)c(CN3CCOCC3)cc12 [Compound 69, 4-methyl-6-(4-morpholinylmethyl)-7-hydroxy-8-chlorocumarin hydrochloride]",inhibition at 100 µg/mL,[1],29%
"C=CCc1c(O)c(CN2CCOCC2)cc2c(-c3ccccc3)cc(=O)oc12 [Compound 44, 4-phenyl-6-(4-morpholinylmethyl)-7-hydroxy-8-allylcumarin hydrochloride]",inhibition at 100 µg/mL,[1],20%
"Cc1cc(=O)oc2c(Cl)c(O)c(CN(C)C)cc12 [Compound 132, 4-methyl-6-dimethylaminomethyl-7-hydroxy-8-chlorocumarin hydrochloride]",inhibition at 100 µg/mL,[1],13%
"C=CCc1c(O)c(CN2CCCC(O)C2)cc2c(C)cc(=O)oc12 (centres unmarked) [Compound 201, 4-methyl-6-[(3-hydroxy-1-piperidinyl)methyl]-7-hydroxy-8-allylcumarin hydrochloride]",inhibition at 100 µg/mL,[1],32%
"C=CCc1c(O)c(CN2CCOCC2)cc2c(C)cc(=O)oc12 [Compound 25, 4-methyl-6-(4-morpholinylmethyl)-7-hydroxy-8-allylcumarin hydrochlorode]",inhibition at 100 µg/mL,[1],19%
"C=CCOc1c(CN2CCOCC2)cc2c(C)c(CCN(CC)CC)c(=O)oc2c1Cl [Compound 67, 3-(2-diethylaminoethyl)-4-methyl-6-(4-morpholinylmethyl)-7-allyloxy-8-chlorocumarin hydrochloride]",inhibition at 100 µg/mL,[1],18%
"Cc1cc(=O)oc2c(C)c(O)c(CN(C)C)cc12 [Compound 130, 4,8-dimethyl-6-dimethylaminomethyl-7-hydroxycumarin hydrochloride]",inhibition at 100 µg/mL,[1],29%
"C=CCc1c(O)c(CN2CCCCC2)cc2c(C)cc(=O)oc12 [Compound 124, 4-methyl-6-(1-piperidinylmethyl)-7-hydroxy-8-allylcumarin hydrochloride]",inhibition at 100 µg/mL,[1],38%
"Cc1cc(=O)oc2c(C)c(O)c(CN3CCOCC3)cc12 [Compound 188, 4,8-dimethyl-6-(4-morpholinylmethyl)-7-hydroxycoumarin hydrochloride]",inhibition at 100 µg/mL,[1],19%
"CCN(CC)CCc1c(C)c2cc(CN3CCOCC3)c(O)c(Cl)c2oc1=O [Compound 58, 3-(2-diethylaminoethyl)-4-methyl-6-(4-morpholinylmethyl)-7-hydroxy-8-chlorocumarin dihydrochloride]",inhibition at 100 µg/mL,[1],25%
"CCN(CC)CCc1c(C)c2cc(CN3CCOCC3)c(OC)c(Cl)c2oc1=O [Compound 105, 3-(2-diethylaminoethyl)-4-methyl-6-(4-morpholinylmethyl)-7-methoxy-8-chlorocumarin dihydrochloride]",inhibition at 100 µg/mL,[1],28%
"C=CCOc1c(CN2CCOCC2)cc2c(C)cc(=O)oc2c1CC=C [Compound 28, 4-methyl-6-(4-morpholinylmethyl)-7-allyloxy-8-allylcumarin hydrochloride]",inhibition at 100 µg/mL,[1],54%
"C=CCOc1c(CN2CCOCC2)cc2c(-c3ccccc3)cc(=O)oc2c1CC=C [Compound 50, 4-phenyl-6-(4-morpholinylmethyl)-7-allyloxy-8-allylcumarin hydrochloride]",inhibition at 100 µg/mL,[1],25%
"C=CCc1c(O)c(CN2CCCC2)cc2c(C)cc(=O)oc12 [Compound 117, 4-methyl-6-(1-pyrrolidinylmethyl)-7-hydroxy-8-allylcumarin hydrochloride]",inhibition at 100 µg/mL,[1],44%
"C=CCc1c(OCC(=O)OCC)c(CN2CCOCC2)cc2c(C)cc(=O)oc12 [Compound 27, Ethyl ester of the acid [4-methyl-6-(4-morpholinylmethyl)-8-allylcumarin-7-yl]oxyacetic]",inhibition at 100 µg/mL,[1],32%
"C=CCc1c(O)c(CN(CC)CC)cc2c(C)cc(=O)oc12 [Compound 121, 4-methyl-6-diethylaminomethyl-7-hydroxy-8-allylcumarin hydrochloride]",inhibition at 100 µg/mL,[1],51%
"C=CCc1c(OC(C)(C)C(=O)OCC)c(CN2CCOCC2)cc2c(C)cc(=O)oc12 [Compound 29, Ethyl ester of the acid 2-[4-methyl-6-(4-morpholinylmethyl)-8-allylcumarin-7-yl]oxy-2-methylpropionic hydrochloride]",inhibition at 100 µg/mL,[1],19%
"C=CCc1c(OC(C)(C)C(=O)OCC)c(CN2CCOCC2)cc2c(-c3ccccc3)cc(=O)oc12 [Compound 52, Ethyl ester of 2-[4-phenyl-6-(4-morpholinylmethyl)-8-allylcumarin-7-yl]oxy-2-methylpropionic acid hydrochloride]",inhibition at 100 µg/mL,[1],22%
"O=c1cc(-c2ccccc2)c2cc(CN3CCOCC3)c(O)c(Cl)c2o1 [Compound 102, 4-phenyl-6-(4-morpholinylmethyl)-7-hydroxy-8-chlorocumarin hydrochloride]",inhibition at 100 µg/mL,[1],12%
"CCN(CC)Cc1cc2c(C)cc(=O)oc2c(Cl)c1O [Compound 76, 4-methyl-6-diethylaminomethyl-7-hydroxy-8-chlorocumarin hydrochloride]",inhibition at 100 µg/mL,[1],27%
"C=CCc1c(OCC(=O)OCC)c(CN2CCOCC2)cc2c(-c3ccccc3)cc(=O)oc12 [Compound 51, Ethyl ester of [4-phenyl-6-(4-morpholinylmethyl)-8-allylcumarin-7-yl]oxy acetic acid hydrochloride]",inhibition at 100 µg/mL,[1],37%
